Patent publication US9944602B2, “Piperidinone herbicides” (E. I. DU PONT DE NEMOURS AND COMPANY, priority 2014, dated 2018)

Legend:
Format in all cases: in vivo
[1] = tested on: ryegrass, Italian (Italian ryegrass, Lolium multiflorum); experiment: Test A postemergence ryegrass, Italian; details: 0 to 100 scale, 0 is no effect, 100 is complete control
Source text: (§1) Seeds of plant species selected from barnyardgrass (Echinochloa crus-galli), kochia (Kochia scoparia), ragweed (common ragweed, Ambrosia elatior), ryegrass, Italian (Italian ryegrass, Lolium multiflorum), crabgrass, large (large crabgrass, Digitaria sanguinalis), foxtail, giant (giant foxtail, Setaria faberii), morningglory (Ipomoea spp.), pigweed (Amaranthus retroflexus), velvetleaf (Abutilon theophrasti), wheat (Triticum aestivum), and corn (Zea mays) were planted into a blend of loam soil and sand and treated preemergence with a directed soil spray using test chemicals formulated in a non-phytotoxic solvent mixture which included a surfactant.
(§2) At the same time, plants selected from these crop and weed species and also blackgrass (Alopecurus myosuroides), and galium (catchweed bedstraw, Galium aparine) were planted in pots containing the same blend of loam soil and sand and treated with postemergence applications of test chemicals formulated in the same manner. Plants ranged in height from 2 to 10 cm and were in the one- to two-leaf stage for the postemergence treatment. Treated plants and untreated controls were maintained in a greenhouse for approximately 10 d, after which time all treated plants were compared to untreated controls and visually evaluated for injury. Plant response ratings, summarized in Table A, are based on a 0 to 100 scale where 0 is no effect and 100 is complete control. A dash (-) response means no test result.

[2] = tested on: kochia (Kochia scoparia); experiment: Test A preemergence kochia; details: 0 to 100 scale, 0 no effect, 100 complete control
Source text: as §1, §2

[3] = tested on: galium (catchweed bedstraw, Galium aparine); experiment: Test A postemergence galium; details: 0 to 100 scale, 0 is no effect, 100 is complete control
Source text: as §1, §2

[4] = tested on: pigweed (Amaranthus retroflexus); experiment: Test A preemergence pigweed; details: 0 to 100 scale, 0 no effect, 100 complete control
Source text: as §1, §2

[5] = tested on: foxtail, giant (giant foxtail, Setaria faberii); experiment: Test A postemergence foxtail, giant; details: 0 to 100 scale, 0 is no effect, 100 is complete control
Source text: as §1, §2

[6] = tested on: ryegrass, Italian (Italian ryegrass, Lolium multiflorum); experiment: Test A preemergence ryegrass, Italian; details: 0 to 100 scale, 0 no effect, 100 complete control
Source text: as §1, §2

[7] = tested on: barnyardgrass (Echinochloa crus-galli); experiment: Test A preemergence barnyardgrass; details: 0 to 100 scale, 0 no effect, 100 complete control
Source text: as §1, §2

[8] = tested on: barnyardgrass (Echinochloa crus-galli); experiment: Test B flooded paddy test barnyardgrass; details: Table B, Flood, scale 0 to 100
Description: (§3) Plant species in the flooded paddy test selected from rice (Oryza sativa), sedge, umbrella (small-flower umbrella sedge, Cyperus difformis), ducksalad (Heteranthera limosa), and barnyardgrass (Echinochloa crus-galli) were grown to the 2-leaf stage for testing. At the time of treatment, test pots were flooded to 3 cm above the soil surface, treated by application of test compounds directly to the paddy water, and then maintained at that water depth for the duration of the test. Treated plants and controls were maintained in a greenhouse for 13 to 15 d, after which time all species were compared to controls and visually evaluated. […] A dash (-) response means no test result.

[9] = tested on: barnyardgrass (Echinochloa crus-galli); experiment: Test A postemergence barnyardgrass; details: 0 to 100 scale, 0 is no effect, 100 is complete control
Source text: as §1, §2

[10] = tested on: rice (Oryza sativa); experiment: Test B flooded paddy test rice; details: Table B, Flood, scale 0 to 100
Description: as §3

[11] = tested on: blackgrass (Alopecurus myosuroides); experiment: Test A postemergence blackgrass; details: 0 to 100 scale, 0 is no effect, 100 is complete control
Source text: as §1, §2

[12] = tested on: corn (Zea mays); experiment: Test A postemergence corn; details: 0 to 100 scale, 0 is no effect, 100 is complete control
Source text: as §1, §2

[13] = tested on: ducksalad (Heteranthera limosa); experiment: Test B flooded paddy test ducksalad; details: Table B, Flood, scale 0 to 100
Description: as §3

[14] = tested on: pigweed (Amaranthus retroflexus); experiment: Test A postemergence pigweed; details: 0 to 100 scale, 0 is no effect, 100 is complete control
Source text: as §1, §2

[15] = tested on: ragweed (common ragweed, Ambrosia elatior); experiment: Test A postemergence ragweed; details: 0 to 100 scale, 0 is no effect, 100 is complete control
Source text: as §1, §2

[16] = tested on: sedge, umbrella (small-flower umbrella sedge, Cyperus difformis); experiment: Test B flooded paddy test sedge, umbrella; details: Table B, Flood, scale 0 to 100
Description: as §3

[17] = tested on: wheat (Triticum aestivum); experiment: Test A postemergence wheat; details: 0 to 100 scale, 0 is no effect, 100 is complete control
Source text: as §1, §2

[18] = tested on: kochia (Kochia scoparia); experiment: Test A postemergence kochia; details: 0 to 100 scale, 0 is no effect, 100 is complete control
Source text: as §1, §2

[19] = tested on: foxtail, giant (giant foxtail, Setaria faberii); experiment: Test A preemergence foxtail, giant; details: 0 to 100 scale, 0 no effect, 100 complete control
Source text: as §1, §2

[20] = tested on: ragweed (common ragweed, Ambrosia elatior); experiment: Test A preemergence ragweed; details: 0 to 100 scale, 0 no effect, 100 complete control
Source text: as §1, §2

O=C1NCCC(c2cccc(OC(F)(F)F)c2)C1C(=O)Nc1ccccc1C(F)(F)F (racemic) [Compound 38]
Plant response rating, Ryegrass, Italian ([1]; 125 g ai/ha): 0 | Plant response rating, Ryegrass, Italian ([1]; 500 g ai/ha): 0 | Kochia plant response rating ([2]; 125 g ai/ha): 0 | Kochia plant response rating ([2]; 500 g ai/ha): 0 | Plant response rating, Galium ([3]; 125 g ai/ha): 0 | Plant response rating, Galium ([3]; 500 g ai/ha): 0 | Pigweed plant response rating ([4]; 125 g ai/ha): 0 | Pigweed plant response rating ([4]; 500 g ai/ha): 0 | Plant response rating, Foxtail, Giant ([5]; 125 g ai/ha): 0 | Plant response rating, Foxtail, Giant ([5]; 500 g ai/ha): 60 | Ryegrass, Italian plant response rating ([6]; 125 g ai/ha): 0 | Ryegrass, Italian plant response rating ([6]; 500 g ai/ha): 0 | Barnyardgrass plant response rating ([7]; 125 g ai/ha): 30 | Barnyardgrass plant response rating ([7]; 500 g ai/ha): 80 | Plant response rating ([8]; 250 g ai/ha): 35 | Plant response rating, Barnyardgrass ([9]; 125 g ai/ha): 50 | Plant response rating, Barnyardgrass ([9]; 500 g ai/ha): 70 | Plant response rating ([10]; 250 g ai/ha): 0 | Plant response rating, Blackgrass ([11]; 125 g ai/ha): 0 | Plant response rating, Blackgrass ([11]; 500 g ai/ha): 0 | Plant response rating, Corn ([12]; 125 g ai/ha): 0 | Plant response rating, Corn ([12]; 500 g ai/ha): 0 | Plant response rating ([13]; 250 g ai/ha): 85 | Plant response rating, Pigweed ([14]; 125 g ai/ha): 0 | Plant response rating, Pigweed ([14]; 500 g ai/ha): 0 | Plant response rating, Ragweed ([15]; 125 g ai/ha): 0 | Plant response rating, Ragweed ([15]; 500 g ai/ha): 0 | Plant response rating ([16]; 250 g ai/ha): 0 | Plant response rating, Wheat ([17]; 125 g ai/ha): 0 | Plant response rating, Wheat ([17]; 500 g ai/ha): 0 | Plant response rating, Kochia ([18]; 125 g ai/ha): 0 | Plant response rating, Kochia ([18]; 500 g ai/ha): 0 | Foxtail, Giant plant response rating ([19]; 125 g ai/ha): 50 | Foxtail, Giant plant response rating ([19]; 500 g ai/ha): 80 | Ragweed plant response rating ([20]; 125 g ai/ha): 0 | Ragweed plant response rating ([20]; 500 g ai/ha): 0

O=C1NCC[C@@H](c2cccc(C(F)(F)F)c2)[C@@H]1C(=O)Nc1ccc(F)c(F)c1F [Compound 29]
Plant response rating, Ryegrass, Italian ([1]; 125 g ai/ha): 0 | Plant response rating, Ryegrass, Italian ([1]; 500 g ai/ha): 0 | Kochia plant response rating ([2]; 125 g ai/ha): 0 | Kochia plant response rating ([2]; 500 g ai/ha): 0 | Plant response rating, Galium ([3]; 125 g ai/ha): 0 | Plant response rating, Galium ([3]; 500 g ai/ha): 0 | Pigweed plant response rating ([4]; 125 g ai/ha): 0 | Pigweed plant response rating ([4]; 500 g ai/ha): 0 | Plant response rating, Foxtail, Giant ([5]; 125 g ai/ha): 0 | Plant response rating, Foxtail, Giant ([5]; 500 g ai/ha): 0 | Ryegrass, Italian plant response rating ([6]; 125 g ai/ha): 0 | Ryegrass, Italian plant response rating ([6]; 500 g ai/ha): 0 | Barnyardgrass plant response rating ([7]; 125 g ai/ha): 0 | Barnyardgrass plant response rating ([7]; 500 g ai/ha): 20 | Plant response rating ([8]; 250 g ai/ha): 0 | Plant response rating, Barnyardgrass ([9]; 125 g ai/ha): 0 | Plant response rating, Barnyardgrass ([9]; 500 g ai/ha): 30 | Plant response rating ([10]; 250 g ai/ha): 0 | Plant response rating, Blackgrass ([11]; 125 g ai/ha): 0 | Plant response rating, Blackgrass ([11]; 500 g ai/ha): 0 | Plant response rating, Corn ([12]; 125 g ai/ha): 0 | Plant response rating, Corn ([12]; 500 g ai/ha): 0 | Plant response rating ([13]; 250 g ai/ha): 0 | Plant response rating, Pigweed ([14]; 125 g ai/ha): 0 | Plant response rating, Pigweed ([14]; 500 g ai/ha): 0 | Plant response rating, Ragweed ([15]; 125 g ai/ha): 0 | Plant response rating, Ragweed ([15]; 500 g ai/ha): 0 | Plant response rating ([16]; 250 g ai/ha): 0 | Plant response rating, Wheat ([17]; 125 g ai/ha): 0 | Plant response rating, Wheat ([17]; 500 g ai/ha): 0 | Plant response rating, Kochia ([18]; 125 g ai/ha): 0 | Plant response rating, Kochia ([18]; 500 g ai/ha): 0 | Foxtail, Giant plant response rating ([19]; 125 g ai/ha): 0 | Foxtail, Giant plant response rating ([19]; 500 g ai/ha): 20 | Ragweed plant response rating ([20]; 125 g ai/ha): 0 | Ragweed plant response rating ([20]; 500 g ai/ha): 0

CS(=O)(=O)c1ccccc1NC(=O)C1C(=O)NCCC1c1cccc(C(F)(F)F)c1 (racemic) [Compound 32]
Plant response rating, Ryegrass, Italian ([1]; 125 g ai/ha): 0 | Plant response rating, Ryegrass, Italian ([1]; 500 g ai/ha): 20 | Kochia plant response rating ([2]; 125 g ai/ha): 0 | Kochia plant response rating ([2]; 500 g ai/ha): 20 | Plant response rating, Galium ([3]; 125 g ai/ha): 0 | Plant response rating, Galium ([3]; 500 g ai/ha): 0 | Pigweed plant response rating ([4]; 125 g ai/ha): 0 | Pigweed plant response rating ([4]; 500 g ai/ha): 0 | Plant response rating, Foxtail, Giant ([5]; 125 g ai/ha): 40 | Plant response rating, Foxtail, Giant ([5]; 500 g ai/ha): 40 | Ryegrass, Italian plant response rating ([6]; 125 g ai/ha): 0 | Ryegrass, Italian plant response rating ([6]; 500 g ai/ha): 30 | Barnyardgrass plant response rating ([7]; 125 g ai/ha): 20 | Barnyardgrass plant response rating ([7]; 500 g ai/ha): 90 | Plant response rating ([8]; 500 g ai/ha): 0 | Plant response rating, Barnyardgrass ([9]; 125 g ai/ha): 60 | Plant response rating, Barnyardgrass ([9]; 500 g ai/ha): 70 | Plant response rating ([10]; 500 g ai/ha): 0 | Plant response rating, Blackgrass ([11]; 125 g ai/ha): 0 | Plant response rating, Blackgrass ([11]; 500 g ai/ha): 0 | Plant response rating, Corn ([12]; 125 g ai/ha): 0 | Plant response rating, Corn ([12]; 500 g ai/ha): 30 | Plant response rating ([13]; 500 g ai/ha): 40 | Plant response rating, Pigweed ([14]; 125 g ai/ha): 0 | Plant response rating, Pigweed ([14]; 500 g ai/ha): 0 | Plant response rating, Ragweed ([15]; 125 g ai/ha): 0 | Plant response rating, Ragweed ([15]; 500 g ai/ha): 0 | Plant response rating ([16]; 500 g ai/ha): 0 | Plant response rating, Wheat ([17]; 125 g ai/ha): 0 | Plant response rating, Wheat ([17]; 500 g ai/ha): 0 | Plant response rating, Kochia ([18]; 125 g ai/ha): 0 | Plant response rating, Kochia ([18]; 500 g ai/ha): 20 | Foxtail, Giant plant response rating ([19]; 125 g ai/ha): 70 | Foxtail, Giant plant response rating ([19]; 500 g ai/ha): 90 | Ragweed plant response rating ([20]; 125 g ai/ha): 0 | Ragweed plant response rating ([20]; 500 g ai/ha): 0
